Assay results from ChEMBL document CHEMBL1201862, “PubChem BioAssay data set” (2004).
Activity calls are given as the source filed them.

What was measured:
[1] = biological target: Lysine-specific demethylase 4C (Homo sapiens, UniProt Q9H3R0); experiment: GASC-1 (JMJD2C) histone demethylase inhibitors, dose response, biochemical, DELFIA europium, cherry-picked samples (AID 488835); type: functional
[2] = biological target: T1, Replicative DNA helicase DnaB (Mycobacterium tuberculosis, UniProt P9WMR3); experiment: DnaB intein splicing inhibitors, dose response, biochemical, cell-free fluorescence (AID 449749); type: functional
T1 sequence (P9WMR3 whole entry): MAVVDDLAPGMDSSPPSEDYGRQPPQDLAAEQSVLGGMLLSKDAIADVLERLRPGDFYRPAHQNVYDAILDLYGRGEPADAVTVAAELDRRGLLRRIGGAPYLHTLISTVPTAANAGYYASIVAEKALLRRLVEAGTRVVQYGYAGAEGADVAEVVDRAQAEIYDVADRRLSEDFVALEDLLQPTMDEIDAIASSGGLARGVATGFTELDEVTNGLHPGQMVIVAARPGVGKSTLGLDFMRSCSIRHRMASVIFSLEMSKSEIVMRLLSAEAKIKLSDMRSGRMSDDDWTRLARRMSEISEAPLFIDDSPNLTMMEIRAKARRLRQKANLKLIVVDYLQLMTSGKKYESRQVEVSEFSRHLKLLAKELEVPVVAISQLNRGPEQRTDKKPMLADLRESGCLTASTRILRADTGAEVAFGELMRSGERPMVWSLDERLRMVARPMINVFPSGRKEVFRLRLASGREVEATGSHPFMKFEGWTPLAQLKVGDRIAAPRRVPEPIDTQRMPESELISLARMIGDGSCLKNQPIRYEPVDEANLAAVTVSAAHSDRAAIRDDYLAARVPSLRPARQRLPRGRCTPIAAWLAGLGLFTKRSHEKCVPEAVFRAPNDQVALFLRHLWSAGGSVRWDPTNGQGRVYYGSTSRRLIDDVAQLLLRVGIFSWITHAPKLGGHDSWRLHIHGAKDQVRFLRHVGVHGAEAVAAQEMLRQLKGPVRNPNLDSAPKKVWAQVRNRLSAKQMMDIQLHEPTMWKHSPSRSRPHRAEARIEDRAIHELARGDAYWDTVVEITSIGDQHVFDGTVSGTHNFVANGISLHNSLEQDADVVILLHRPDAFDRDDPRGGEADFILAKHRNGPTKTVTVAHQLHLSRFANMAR

[3] = biological target: T2, Histone-lysine N-methyltransferase NSD2 (Homo sapiens, UniProt O96028); type: biochemical
T2 sequence (O96028 whole entry): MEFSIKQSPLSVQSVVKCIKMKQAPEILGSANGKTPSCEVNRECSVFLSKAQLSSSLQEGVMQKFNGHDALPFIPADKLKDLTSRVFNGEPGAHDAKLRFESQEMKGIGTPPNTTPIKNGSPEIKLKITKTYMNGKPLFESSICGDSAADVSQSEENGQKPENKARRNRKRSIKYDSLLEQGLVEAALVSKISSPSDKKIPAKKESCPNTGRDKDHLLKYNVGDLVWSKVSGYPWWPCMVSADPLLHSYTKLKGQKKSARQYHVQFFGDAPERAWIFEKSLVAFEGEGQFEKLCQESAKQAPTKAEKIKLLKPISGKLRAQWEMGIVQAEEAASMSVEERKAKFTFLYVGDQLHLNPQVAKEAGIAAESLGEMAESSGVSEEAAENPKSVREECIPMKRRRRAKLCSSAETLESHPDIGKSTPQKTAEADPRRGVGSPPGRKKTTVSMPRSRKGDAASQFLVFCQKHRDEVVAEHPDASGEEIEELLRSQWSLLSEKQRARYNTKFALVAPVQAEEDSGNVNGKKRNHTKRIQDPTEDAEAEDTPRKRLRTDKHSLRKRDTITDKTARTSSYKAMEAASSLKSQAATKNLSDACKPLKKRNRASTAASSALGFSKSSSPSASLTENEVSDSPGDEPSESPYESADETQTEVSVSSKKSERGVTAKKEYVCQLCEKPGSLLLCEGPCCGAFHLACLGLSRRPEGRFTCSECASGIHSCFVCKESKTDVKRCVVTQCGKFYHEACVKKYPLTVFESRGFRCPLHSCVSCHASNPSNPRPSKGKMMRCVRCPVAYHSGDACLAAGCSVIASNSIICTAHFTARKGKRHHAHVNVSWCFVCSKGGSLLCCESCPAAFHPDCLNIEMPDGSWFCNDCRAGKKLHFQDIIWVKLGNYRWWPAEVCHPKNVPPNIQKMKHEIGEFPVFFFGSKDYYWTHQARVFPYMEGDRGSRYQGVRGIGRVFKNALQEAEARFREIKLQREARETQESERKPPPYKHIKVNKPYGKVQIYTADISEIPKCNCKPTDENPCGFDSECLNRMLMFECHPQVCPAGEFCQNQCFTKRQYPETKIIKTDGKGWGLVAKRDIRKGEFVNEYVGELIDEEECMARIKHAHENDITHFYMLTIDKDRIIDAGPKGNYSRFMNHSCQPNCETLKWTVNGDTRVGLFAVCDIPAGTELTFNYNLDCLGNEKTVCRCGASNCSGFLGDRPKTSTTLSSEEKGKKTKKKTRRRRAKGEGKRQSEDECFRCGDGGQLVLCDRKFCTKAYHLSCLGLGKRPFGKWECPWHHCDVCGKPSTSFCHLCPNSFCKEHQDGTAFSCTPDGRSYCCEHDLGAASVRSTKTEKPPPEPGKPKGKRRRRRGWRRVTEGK

Protein RecA = biological target: T3, Protein RecA (Mycobacterium tuberculosis, UniProt P9WHJ3); experiment: Fluorescence Cell-Free Homogeneous Dose Retest to Identify Inhibitors of RecA-Intein Splicing Activity. [Related pubchem assays (depositor defined):AID2097, AID2223, AID489010, AID492950]; type: functional
T3 sequence (P9WHJ3 whole entry): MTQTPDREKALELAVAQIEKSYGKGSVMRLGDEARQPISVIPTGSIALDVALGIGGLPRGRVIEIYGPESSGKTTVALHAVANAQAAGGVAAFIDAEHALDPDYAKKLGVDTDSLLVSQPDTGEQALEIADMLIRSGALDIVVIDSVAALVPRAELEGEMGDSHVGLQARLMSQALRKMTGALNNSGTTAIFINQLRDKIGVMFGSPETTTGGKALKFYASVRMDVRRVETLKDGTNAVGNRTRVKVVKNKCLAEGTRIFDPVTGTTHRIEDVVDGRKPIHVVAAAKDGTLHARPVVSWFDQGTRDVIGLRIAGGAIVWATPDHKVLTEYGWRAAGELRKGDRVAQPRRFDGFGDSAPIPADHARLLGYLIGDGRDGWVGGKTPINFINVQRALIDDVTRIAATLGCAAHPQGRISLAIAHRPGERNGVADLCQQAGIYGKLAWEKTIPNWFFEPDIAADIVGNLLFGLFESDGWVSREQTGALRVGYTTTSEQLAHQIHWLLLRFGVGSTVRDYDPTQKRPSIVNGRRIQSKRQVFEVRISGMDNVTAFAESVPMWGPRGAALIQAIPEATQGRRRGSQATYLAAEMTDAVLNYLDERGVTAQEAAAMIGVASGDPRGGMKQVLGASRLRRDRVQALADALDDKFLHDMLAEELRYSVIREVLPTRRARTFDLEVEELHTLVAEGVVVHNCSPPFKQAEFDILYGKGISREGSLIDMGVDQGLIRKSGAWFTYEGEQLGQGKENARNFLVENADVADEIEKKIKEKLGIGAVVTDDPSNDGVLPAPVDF

[4] = biological target: T4, Mannose-6-phosphate isomerase (Homo sapiens, UniProt P34949); experiment: human PMI inhibitors, high substrate, primary screen, biochemical, fluorescence intensity, high mannose 6-phosphate (AID 1220)
T4 sequence (P34949 whole entry): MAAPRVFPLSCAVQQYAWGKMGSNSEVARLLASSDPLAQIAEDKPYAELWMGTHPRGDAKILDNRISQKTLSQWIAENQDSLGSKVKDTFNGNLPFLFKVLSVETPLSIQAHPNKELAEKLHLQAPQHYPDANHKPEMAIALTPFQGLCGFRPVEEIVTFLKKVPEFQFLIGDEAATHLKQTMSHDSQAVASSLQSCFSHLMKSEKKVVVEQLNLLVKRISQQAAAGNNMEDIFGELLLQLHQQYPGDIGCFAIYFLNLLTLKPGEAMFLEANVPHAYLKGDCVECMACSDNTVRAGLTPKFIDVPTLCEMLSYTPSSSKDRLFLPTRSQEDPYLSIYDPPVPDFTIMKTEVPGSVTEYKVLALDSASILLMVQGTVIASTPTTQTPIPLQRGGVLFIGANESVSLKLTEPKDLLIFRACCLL

Phosphomannomutase 2 = Phosphomannomutase 2 (Homo sapiens, UniProt O15305); experiment: Counter screen SAR assay for PMM2 inhibitors via a fluorescence intensity assay. [Related pubchem assays (depositor defined):AID1545, AID1574]
Phosphomannomutase 2, sequence (O15305 whole entry): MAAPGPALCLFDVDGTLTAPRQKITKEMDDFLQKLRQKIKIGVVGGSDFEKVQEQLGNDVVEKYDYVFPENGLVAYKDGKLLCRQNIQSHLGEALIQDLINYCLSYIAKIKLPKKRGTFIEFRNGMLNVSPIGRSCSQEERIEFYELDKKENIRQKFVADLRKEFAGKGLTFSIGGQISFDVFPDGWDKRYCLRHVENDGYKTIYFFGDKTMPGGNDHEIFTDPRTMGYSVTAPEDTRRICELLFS

Large T antigen = Large T antigen (Simian virus 40, UniProt P03070); type: functional, Betapolyomavirus macacae;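 note: Confirmatory-stage PubChem screen for compounds that inhibit SV40 T antigen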
Large T antigen, sequence (P03070 whole entry): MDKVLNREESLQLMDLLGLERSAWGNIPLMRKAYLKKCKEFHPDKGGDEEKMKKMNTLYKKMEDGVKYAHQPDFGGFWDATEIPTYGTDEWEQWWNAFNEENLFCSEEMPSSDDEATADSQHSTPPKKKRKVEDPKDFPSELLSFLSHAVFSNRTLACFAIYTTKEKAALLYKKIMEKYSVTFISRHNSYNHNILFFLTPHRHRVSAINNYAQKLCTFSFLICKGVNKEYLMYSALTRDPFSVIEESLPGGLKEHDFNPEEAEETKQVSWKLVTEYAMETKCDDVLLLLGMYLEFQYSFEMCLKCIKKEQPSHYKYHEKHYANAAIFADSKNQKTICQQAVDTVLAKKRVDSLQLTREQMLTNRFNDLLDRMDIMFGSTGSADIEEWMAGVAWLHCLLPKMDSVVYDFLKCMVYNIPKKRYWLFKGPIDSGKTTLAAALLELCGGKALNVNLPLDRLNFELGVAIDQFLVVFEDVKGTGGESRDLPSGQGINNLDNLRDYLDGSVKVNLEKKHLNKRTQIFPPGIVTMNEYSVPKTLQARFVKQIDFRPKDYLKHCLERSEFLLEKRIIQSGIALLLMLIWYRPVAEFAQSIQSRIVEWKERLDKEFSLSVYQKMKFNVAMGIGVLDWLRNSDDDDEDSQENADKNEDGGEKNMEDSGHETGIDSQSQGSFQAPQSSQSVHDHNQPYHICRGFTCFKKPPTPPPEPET

[5] = biological target: T4, Mannose-6-phosphate isomerase; experiment: PMI enzyme inhibitors, confirmation, biochemical, fluorescence intensity (AID 1535)
Keap1/Nrf2 = Keap1/Nrf2 (Homo sapiens, UniProt Q14145); experiment: Keap1-Nrf2 protein-protein interaction inhibitors, dose response, biochemical, fluorescence polarization, cherry-picked samples (AID 588683)
Keap1/Nrf2, sequence (Q16236 whole entry): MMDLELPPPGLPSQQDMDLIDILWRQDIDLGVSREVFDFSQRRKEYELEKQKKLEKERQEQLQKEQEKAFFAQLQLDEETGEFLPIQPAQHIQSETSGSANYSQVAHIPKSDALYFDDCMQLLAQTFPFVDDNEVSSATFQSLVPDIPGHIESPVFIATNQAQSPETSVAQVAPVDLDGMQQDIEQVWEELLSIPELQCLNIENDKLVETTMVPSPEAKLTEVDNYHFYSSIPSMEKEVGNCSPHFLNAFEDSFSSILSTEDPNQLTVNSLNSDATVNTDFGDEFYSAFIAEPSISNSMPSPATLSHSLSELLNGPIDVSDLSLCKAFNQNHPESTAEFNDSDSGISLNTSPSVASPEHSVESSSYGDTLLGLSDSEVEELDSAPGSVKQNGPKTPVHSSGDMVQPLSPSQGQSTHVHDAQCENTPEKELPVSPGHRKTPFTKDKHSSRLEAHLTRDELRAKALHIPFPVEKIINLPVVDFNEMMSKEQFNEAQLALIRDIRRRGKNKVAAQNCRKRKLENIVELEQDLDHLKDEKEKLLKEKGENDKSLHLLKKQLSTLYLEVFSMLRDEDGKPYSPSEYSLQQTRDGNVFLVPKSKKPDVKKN
Keap1/Nrf2, sequence (Q14145 whole entry): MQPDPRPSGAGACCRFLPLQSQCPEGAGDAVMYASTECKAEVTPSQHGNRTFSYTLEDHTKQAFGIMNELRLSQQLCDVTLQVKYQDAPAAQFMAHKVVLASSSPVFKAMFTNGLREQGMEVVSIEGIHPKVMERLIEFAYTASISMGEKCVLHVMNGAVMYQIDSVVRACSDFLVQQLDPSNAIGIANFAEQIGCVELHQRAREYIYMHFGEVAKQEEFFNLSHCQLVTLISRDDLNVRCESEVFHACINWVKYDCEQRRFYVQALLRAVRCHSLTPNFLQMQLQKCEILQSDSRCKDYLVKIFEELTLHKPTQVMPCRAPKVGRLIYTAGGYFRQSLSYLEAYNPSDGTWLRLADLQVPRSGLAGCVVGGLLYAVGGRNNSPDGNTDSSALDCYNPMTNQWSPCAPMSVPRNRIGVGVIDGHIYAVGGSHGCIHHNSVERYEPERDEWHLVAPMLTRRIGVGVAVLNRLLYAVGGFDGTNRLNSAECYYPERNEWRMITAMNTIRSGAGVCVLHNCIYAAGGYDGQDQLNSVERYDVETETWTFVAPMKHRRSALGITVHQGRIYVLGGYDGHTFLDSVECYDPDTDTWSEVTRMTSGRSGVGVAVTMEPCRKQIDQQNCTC

H4 = experiment: Luminescence Cell-Based Dose Response HTS to Identify Activators of 5'UTR Stem-Loop Driven Prion Protein mRNA Translation in H4 Neuroglioblastoma Cells. [Related pubchem assays: 1829 (Project Summary), 1814 (Primary HTS)]; type: functional; conditions: Homo sapiens
[6] = Luminescence Cell-Based Dose Response HTS to Identify Activators of Luciferase Translation or Activity in H4 […] Cells. [Related pubchem assays: 1829 (Project Summary), 1814 (Primary HTS)]; type: functional

Lysine-specific demethylase 4C, sequence (Q9H3R0 whole entry): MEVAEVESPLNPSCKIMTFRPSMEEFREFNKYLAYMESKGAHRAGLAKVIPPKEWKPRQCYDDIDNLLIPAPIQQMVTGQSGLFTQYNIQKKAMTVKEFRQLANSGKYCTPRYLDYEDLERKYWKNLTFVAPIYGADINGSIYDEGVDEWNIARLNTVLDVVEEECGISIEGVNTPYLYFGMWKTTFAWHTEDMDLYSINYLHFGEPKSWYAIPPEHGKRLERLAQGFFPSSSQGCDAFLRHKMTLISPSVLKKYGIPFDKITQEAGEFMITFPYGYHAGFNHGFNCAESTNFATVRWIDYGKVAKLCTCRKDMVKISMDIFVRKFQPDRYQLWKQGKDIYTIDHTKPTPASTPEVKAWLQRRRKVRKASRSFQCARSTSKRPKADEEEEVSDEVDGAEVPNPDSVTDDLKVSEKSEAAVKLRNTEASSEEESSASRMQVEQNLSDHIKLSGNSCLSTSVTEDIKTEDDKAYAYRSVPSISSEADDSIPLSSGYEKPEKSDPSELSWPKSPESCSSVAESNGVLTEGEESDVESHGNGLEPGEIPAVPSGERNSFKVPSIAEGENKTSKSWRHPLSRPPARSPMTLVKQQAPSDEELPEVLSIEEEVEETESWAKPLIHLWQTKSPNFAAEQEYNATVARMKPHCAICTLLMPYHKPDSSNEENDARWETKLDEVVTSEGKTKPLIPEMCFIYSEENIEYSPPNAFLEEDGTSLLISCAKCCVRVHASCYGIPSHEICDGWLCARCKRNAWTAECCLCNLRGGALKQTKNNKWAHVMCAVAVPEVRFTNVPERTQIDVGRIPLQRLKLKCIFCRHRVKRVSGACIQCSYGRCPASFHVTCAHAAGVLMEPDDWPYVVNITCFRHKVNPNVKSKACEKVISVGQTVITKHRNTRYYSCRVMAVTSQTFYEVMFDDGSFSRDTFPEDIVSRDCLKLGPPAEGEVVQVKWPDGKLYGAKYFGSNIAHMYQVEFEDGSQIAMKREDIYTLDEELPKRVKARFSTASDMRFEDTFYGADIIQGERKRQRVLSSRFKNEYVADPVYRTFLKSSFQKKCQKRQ

With `Cc1nnc(N/N=C\c2ccc(-c3ccccc3[N+](=O)[O-])o2)n1N` the AC50 [1] was 7.3 µM (active), the AC50 [2] was 58.9 µM (active) and the AC50 [3] was 10.3 µM (active). The EC50 (Protein RecA) was 23.5 µM (active) and the IC50 [4] was > 50 µM (not active).

For `CCOc1ccc(-c2n[nH]c(=S)[nH]2)cc1`, the IC50 (Phosphomannomutase 2) was > 100 µM (inactive), the IC50 (Large T antigen) was > 100 µM (active) and the IC50 [5] was 39.1 µM (active).

For `O=c1c(-c2cc3ccccc3o2)[n+]([O-])c2ccccc2n1OCc1ccccn1`, the AC50 (Keap1/Nrf2) was > 52 µM (inactive), the EC50 (H4) was 65.5 µM (inconclusive) and the EC50 [6] was 4.81 µM (active).
